Assay results taken from ChEMBL document CHEMBL4507276 (2021).

Key:
[1] = target: Tyrosine-protein kinase ABL1 (Homo sapiens) (UniProt P00519); details: Compound concentration 1000.0 nM
[2] = target: RAC-beta serine/threonine-protein kinase (Homo sapiens) (UniProt P31751); details: Compound concentration 1000.0 nM
[3] = target: Ankyrin repeat and protein kinase domain-containing protein 1 (Homo sapiens) (UniProt Q8NFD2); details: Compound concentration 1000.0 nM
[4] = target: Bone morphogenetic protein receptor type-1A (Homo sapiens) (UniProt P36894); details: Compound concentration 1000.0 nM
[5] = target: Bone morphogenetic protein receptor type-1B (Homo sapiens) (UniProt O00238); details: Compound concentration 1000.0 nM
[6] = target: Mitogen-activated protein kinase 4 (Homo sapiens) (UniProt P31152); details: Compound concentration 1000.0 nM
[7] = target: Vascular endothelial growth factor receptor 3 (Homo sapiens) (UniProt P35916); details: Compound concentration 1000.0 nM
[8] = target: Serine/threonine-protein kinase LATS1 (Homo sapiens) (UniProt O95835); details: Compound concentration 1000.0 nM
[9] = target: Mitogen-activated protein kinase kinase kinase kinase 3 (Homo sapiens) (UniProt Q8IVH8); details: Compound concentration 1000.0 nM
[10] = target: T1, Dual specificity mitogen-activated protein kinase kinase 6 (Homo sapiens) (UniProt P52564); details: Compound concentration 1000.0 nM
T1 sequence (whole entry): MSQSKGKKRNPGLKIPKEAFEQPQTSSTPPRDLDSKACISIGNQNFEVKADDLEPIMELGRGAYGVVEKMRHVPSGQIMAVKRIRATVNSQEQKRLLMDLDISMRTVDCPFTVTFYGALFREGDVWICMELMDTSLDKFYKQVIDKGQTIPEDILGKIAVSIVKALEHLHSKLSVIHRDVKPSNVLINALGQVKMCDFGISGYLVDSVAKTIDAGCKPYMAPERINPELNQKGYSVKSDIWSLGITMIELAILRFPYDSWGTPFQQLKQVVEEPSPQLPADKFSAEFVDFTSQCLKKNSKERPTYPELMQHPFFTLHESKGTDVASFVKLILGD

[11] = target: Serine/threonine-protein kinase MRCK alpha (Homo sapiens) (UniProt Q5VT25); details: Compound concentration 1000.0 nM
[12] = target: T2, Mitogen-activated protein kinase 12 (Homo sapiens) (UniProt P53778); details: Compound concentration 1000.0 nM
T2 sequence (whole entry): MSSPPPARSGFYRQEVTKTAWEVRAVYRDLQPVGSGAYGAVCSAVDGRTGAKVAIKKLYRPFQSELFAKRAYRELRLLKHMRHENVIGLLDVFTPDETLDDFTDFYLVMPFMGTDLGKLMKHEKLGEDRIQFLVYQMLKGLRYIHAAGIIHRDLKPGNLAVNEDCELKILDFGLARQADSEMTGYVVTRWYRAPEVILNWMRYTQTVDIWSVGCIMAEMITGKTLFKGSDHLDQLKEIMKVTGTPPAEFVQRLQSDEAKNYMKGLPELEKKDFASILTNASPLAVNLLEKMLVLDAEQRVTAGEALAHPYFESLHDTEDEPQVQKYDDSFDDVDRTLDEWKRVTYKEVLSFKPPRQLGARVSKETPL

[13] = target: 1-phosphatidylinositol 3-phosphate 5-kinase (Homo sapiens) (UniProt Q9Y2I7); details: Compound concentration 1000.0 nM
[14] = target: cAMP-dependent protein kinase catalytic subunit beta (Homo sapiens) (UniProt P22694); details: Compound concentration 1000.0 nM
[15] = target: Protein-tyrosine kinase 2-beta (Homo sapiens) (UniProt Q14289); details: Compound concentration 1000.0 nM
[16] = target: Ribosomal protein S6 kinase alpha-1 (Homo sapiens) (UniProt Q15418); details: Compound concentration 1000.0 nM
[17] = target: Serine/threonine-protein kinase 36 (Homo sapiens) (UniProt Q9NRP7); details: Compound concentration 1000.0 nM
[18] = target: T3, Tyrosine-protein kinase Tec (Homo sapiens) (UniProt P42680); details: Compound concentration 1000.0 nM
T3 sequence (whole entry): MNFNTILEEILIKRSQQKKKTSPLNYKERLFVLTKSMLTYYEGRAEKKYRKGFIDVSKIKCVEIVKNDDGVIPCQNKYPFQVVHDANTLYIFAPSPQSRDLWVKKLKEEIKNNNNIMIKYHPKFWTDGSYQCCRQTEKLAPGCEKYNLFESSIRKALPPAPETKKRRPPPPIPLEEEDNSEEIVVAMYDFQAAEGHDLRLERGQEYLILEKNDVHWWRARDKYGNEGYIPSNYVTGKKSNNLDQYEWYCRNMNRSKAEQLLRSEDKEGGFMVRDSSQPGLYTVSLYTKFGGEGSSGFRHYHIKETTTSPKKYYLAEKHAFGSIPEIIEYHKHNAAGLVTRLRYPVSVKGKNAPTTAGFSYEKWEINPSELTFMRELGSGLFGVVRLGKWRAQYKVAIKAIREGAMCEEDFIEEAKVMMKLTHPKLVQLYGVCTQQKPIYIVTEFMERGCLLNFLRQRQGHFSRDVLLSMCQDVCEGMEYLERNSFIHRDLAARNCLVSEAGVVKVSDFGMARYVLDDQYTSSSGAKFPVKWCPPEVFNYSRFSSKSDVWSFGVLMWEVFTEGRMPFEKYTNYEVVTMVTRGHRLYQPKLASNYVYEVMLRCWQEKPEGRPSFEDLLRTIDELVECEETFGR

[19] = target: Mitogen-activated protein kinase kinase kinase 20 (Homo sapiens) (UniProt Q9NYL2); details: Compound concentration 1000.0 nM
[20] = target: T4, Muscarinic acetylcholine receptor M4 (Homo sapiens) (UniProt P08173); details: Compound concentration 10.0 uM
T4 sequence (whole entry): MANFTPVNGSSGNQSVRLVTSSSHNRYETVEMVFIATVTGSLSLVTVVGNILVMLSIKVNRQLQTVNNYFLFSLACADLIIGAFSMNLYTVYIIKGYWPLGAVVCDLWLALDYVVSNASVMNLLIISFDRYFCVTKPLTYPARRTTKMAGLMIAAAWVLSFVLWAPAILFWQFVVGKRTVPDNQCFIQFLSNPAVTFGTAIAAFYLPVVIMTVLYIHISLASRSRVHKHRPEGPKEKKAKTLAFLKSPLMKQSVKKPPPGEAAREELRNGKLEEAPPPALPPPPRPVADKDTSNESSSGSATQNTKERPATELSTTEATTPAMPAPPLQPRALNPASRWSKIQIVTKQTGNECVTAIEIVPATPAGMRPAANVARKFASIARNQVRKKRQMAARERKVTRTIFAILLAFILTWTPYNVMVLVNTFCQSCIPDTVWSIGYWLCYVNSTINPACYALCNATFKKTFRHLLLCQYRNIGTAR

Sequence of Serine/threonine-protein kinase 36 (Homo sapiens) (Q9NRP7 whole entry): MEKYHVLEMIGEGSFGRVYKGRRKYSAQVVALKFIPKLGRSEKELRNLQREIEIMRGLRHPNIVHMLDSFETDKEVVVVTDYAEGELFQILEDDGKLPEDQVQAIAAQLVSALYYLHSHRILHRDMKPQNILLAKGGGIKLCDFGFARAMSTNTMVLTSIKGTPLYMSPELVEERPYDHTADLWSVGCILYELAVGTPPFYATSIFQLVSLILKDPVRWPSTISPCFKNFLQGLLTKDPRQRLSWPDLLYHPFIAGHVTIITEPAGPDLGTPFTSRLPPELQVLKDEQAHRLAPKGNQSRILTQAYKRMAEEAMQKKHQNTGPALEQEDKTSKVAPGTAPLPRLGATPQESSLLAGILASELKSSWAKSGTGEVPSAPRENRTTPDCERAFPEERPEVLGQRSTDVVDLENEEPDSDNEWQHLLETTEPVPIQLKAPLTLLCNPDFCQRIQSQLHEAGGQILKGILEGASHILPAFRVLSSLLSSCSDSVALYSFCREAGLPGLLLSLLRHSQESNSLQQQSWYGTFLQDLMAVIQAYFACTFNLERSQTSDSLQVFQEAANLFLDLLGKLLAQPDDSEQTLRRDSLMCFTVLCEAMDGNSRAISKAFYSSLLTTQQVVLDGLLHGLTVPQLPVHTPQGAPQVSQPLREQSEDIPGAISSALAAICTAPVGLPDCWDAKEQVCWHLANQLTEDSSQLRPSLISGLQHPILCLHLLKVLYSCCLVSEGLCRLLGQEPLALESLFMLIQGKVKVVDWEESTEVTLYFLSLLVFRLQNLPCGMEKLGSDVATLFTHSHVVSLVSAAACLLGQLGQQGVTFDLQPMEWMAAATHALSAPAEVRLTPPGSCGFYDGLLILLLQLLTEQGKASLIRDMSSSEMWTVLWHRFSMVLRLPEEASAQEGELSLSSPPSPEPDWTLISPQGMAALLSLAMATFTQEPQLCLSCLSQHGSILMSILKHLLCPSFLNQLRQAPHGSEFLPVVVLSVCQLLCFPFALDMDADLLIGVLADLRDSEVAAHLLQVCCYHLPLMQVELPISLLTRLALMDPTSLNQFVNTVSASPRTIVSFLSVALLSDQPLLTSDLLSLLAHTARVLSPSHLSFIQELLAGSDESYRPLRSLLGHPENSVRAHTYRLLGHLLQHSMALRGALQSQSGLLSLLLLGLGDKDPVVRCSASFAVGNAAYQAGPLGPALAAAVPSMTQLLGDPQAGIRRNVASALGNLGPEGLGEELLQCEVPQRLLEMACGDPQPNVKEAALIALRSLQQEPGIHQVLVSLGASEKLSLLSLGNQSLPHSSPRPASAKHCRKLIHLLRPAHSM
Sequence of Bone morphogenetic protein receptor type-1B (Homo sapiens) (O00238 whole entry): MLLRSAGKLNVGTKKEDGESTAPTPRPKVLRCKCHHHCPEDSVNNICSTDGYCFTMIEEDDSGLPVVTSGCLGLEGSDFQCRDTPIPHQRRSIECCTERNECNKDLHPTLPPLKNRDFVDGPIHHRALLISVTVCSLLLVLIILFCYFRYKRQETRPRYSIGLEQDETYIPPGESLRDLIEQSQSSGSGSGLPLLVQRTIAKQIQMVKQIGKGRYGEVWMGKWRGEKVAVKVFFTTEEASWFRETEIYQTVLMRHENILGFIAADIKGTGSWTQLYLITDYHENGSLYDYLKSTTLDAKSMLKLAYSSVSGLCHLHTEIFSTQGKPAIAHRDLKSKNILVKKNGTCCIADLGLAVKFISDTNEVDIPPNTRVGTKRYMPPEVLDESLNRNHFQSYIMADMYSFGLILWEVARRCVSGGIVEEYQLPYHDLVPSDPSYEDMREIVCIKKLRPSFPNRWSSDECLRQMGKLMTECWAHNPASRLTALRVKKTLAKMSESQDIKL
Sequence of Protein-tyrosine kinase 2-beta (Homo sapiens) (Q14289 whole entry, looked up): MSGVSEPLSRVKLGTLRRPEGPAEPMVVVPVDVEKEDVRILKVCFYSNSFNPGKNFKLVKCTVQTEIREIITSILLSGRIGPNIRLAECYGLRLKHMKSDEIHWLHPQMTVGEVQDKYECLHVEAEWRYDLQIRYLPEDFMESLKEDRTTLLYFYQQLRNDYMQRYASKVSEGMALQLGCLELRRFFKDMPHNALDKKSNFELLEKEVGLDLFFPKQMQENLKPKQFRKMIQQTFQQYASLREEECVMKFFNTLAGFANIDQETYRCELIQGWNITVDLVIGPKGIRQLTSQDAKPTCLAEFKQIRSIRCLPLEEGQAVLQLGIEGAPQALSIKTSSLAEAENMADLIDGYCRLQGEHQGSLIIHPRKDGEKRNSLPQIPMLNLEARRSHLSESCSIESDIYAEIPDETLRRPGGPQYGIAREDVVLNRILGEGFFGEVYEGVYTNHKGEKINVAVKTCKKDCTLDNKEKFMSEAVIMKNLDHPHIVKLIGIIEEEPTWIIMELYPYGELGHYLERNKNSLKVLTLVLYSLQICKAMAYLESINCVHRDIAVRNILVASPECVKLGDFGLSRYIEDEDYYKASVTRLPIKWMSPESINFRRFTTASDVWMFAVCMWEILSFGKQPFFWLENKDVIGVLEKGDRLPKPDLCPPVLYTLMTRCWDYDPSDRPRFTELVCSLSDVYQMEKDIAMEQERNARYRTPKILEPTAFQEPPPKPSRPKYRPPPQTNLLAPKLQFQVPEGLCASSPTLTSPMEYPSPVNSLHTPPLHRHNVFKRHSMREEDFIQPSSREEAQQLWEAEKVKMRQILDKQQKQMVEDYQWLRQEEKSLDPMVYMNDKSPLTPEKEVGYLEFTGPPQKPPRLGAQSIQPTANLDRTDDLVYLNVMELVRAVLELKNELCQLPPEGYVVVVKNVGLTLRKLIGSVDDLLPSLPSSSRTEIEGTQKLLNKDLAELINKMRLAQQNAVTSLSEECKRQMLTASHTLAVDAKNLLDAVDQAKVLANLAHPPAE
Sequence of Bone morphogenetic protein receptor type-1A (Homo sapiens) (P36894 whole entry): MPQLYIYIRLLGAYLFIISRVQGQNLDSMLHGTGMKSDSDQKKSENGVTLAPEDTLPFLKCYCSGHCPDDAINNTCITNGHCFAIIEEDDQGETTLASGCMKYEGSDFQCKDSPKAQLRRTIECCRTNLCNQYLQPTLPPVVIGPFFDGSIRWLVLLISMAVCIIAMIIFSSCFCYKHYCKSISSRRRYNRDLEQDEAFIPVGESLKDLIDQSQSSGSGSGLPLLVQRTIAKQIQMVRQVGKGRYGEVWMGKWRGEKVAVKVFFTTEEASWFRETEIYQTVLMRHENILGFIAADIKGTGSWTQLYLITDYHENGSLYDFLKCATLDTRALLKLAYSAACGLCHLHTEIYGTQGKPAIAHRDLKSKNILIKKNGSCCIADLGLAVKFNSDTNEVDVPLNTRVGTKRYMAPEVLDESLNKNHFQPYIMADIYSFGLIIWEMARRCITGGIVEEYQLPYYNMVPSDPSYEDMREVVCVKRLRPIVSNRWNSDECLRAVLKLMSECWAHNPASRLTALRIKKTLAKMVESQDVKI
Sequence of Ankyrin repeat and protein kinase domain-containing protein 1 (Homo sapiens) (Q8NFD2 whole entry, the tested form may be a part): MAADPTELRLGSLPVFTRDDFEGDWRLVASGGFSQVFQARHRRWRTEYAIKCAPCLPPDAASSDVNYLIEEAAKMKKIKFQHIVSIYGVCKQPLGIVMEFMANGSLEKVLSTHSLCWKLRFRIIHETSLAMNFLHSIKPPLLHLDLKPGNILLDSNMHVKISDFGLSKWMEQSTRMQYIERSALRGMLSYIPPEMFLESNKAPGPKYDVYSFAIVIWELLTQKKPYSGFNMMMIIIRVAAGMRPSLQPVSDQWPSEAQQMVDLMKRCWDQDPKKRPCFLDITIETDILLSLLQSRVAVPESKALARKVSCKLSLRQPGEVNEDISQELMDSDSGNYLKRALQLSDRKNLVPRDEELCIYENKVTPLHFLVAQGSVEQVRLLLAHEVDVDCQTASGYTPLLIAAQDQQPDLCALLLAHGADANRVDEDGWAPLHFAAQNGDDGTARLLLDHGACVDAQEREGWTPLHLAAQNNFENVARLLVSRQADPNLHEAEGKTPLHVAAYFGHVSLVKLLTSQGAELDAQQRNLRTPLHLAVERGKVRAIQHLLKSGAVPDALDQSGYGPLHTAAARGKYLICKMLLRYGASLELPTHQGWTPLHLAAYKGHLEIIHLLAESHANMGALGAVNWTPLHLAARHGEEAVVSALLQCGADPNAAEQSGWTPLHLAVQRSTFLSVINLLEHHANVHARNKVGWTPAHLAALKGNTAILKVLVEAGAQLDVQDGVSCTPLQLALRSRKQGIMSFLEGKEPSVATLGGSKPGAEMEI
Sequence of Ribosomal protein S6 kinase alpha-1 (Homo sapiens) (Q15418 whole entry): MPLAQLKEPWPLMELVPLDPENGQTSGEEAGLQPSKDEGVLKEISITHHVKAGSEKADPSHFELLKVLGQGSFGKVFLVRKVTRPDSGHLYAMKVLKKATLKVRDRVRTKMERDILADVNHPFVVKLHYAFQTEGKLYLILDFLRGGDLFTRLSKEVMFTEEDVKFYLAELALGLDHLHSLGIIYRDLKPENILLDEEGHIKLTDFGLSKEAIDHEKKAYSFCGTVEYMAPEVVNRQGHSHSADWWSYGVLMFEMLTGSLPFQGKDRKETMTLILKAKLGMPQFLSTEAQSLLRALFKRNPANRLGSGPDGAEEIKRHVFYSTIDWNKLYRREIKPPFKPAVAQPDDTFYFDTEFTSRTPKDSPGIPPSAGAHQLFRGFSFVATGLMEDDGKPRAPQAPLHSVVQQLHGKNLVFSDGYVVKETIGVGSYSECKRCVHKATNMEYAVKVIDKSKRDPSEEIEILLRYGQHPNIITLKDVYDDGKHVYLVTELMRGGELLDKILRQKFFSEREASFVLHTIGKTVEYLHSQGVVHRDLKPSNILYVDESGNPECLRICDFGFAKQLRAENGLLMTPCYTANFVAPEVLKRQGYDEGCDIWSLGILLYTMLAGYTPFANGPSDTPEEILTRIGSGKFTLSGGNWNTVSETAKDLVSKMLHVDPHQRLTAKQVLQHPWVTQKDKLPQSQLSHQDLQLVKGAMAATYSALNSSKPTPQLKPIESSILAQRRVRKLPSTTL

CN(C)C(=O)Cn1cc(-c2nc(C3(c4ccc(-c5cnc(N)nc5)cc4)CC3)no2)cn1 [BI 0153]
inactive: residual activity [1] 93% | residual activity [2] 100% | residual activity [3] 81% | residual activity [4] 87% | residual activity [5] 99% | residual activity [6] 100% | residual activity [7] 95% | residual activity [8] 100% | residual activity [9] 89% | residual activity [10] 100% | residual activity [11] 100% | residual activity [12] 62% | residual activity [13] 98% | residual activity [14] 86% | residual activity [15] 90% | residual activity [16] 100% | residual activity [17] 75% | residual activity [18] 93% | residual activity [19] 92% | inhibition [20] 5.81%

CN(C)C(=O)Cn1cc(-c2nc([C@@](C)(c3ccc(-c4cnc(N)nc4)cc3)C3CC3)no2)cn1 [BI 665915]
inactive: residual activity [1] 84% | residual activity [2] 84% | residual activity [3] 81% | residual activity [4] 100% | residual activity [5] 76% | residual activity [6] 88% | residual activity [7] 88% | residual activity [8] 93% | residual activity [9] 100% | residual activity [10] 100% | residual activity [11] 100% | residual activity [12] 94% | residual activity [13] 68% | residual activity [14] 100% | residual activity [15] 87% | residual activity [16] 99% | residual activity [17] 79% | residual activity [18] 93% | residual activity [19] 80% | inhibition [20] 10.3%
